From patent publication US20230251278A1, “ACQUISITION METHOD OF VALUE RELATING TO TRIGLYCERIDE METABOLIC CAPACITY, PRESENTATION METHOD OF DISEASE INFORMATION, PRESENTATION METHOD OF DISEASE DIFFERENTIATION INFORMATION, PRESENTATION METHOD OF THERAPY EFFICACY INFORMATION, PRESENTATION METHOD OF THERAPEUTIC EFFECT INFORMATION, TEST REAGENT …” (OSAKA UNIVERSITY, priority 2020, published 2023)

Legend:
[1] = system: leucocytes (neutrophils, monocytes, lymphocytes); assay: Influence of excretion time on Alexa Fluor 680-BMPP excretion amount (FACS); type: cell-based, human; details: leucocytes of two healthy individuals; 0.067 μM; 37° C.; histograms did not shift from 10 to 120 minutes
Description: 6 ml of each whole blood collected from two healthy individuals using the blood collection tube containing heparin was added with the HetaSep (Veritas Corporation) in an amount of one fifth of the whole blood, leucocytes were collected according to the manufacturer's instruction, and the cells were resuspended in 2.1 ml of the DMEM serum-free medium. Alexa Fluor™ 680-BMPP uptake ability and Alexa Fluor™ 680-BMPP excretion ability of the leucocytes were measured using 400 μl each as described below.
40 μl of the Alexa Fluor™ 680-BMPP was added to 400 μl of the cell resuspension so that a final concentration of the Alexa Fluor™ 680-BMPP was 0.067 μM, and a reaction for uptake the Alexa Fluor™ 680-BMPP was performed by standing at room temperature for 30 minutes. A sample for measurement immediately after the uptake was added with BD FACS Lysing Solution immediately after the reaction to be hemolyzed and then, subjected to FACS. […] FACS analysis was performed in the same manner as described in the experimental example 2, and for each of neutrophils, monocytes, and lymphocytes, fluorescence intensities at each excretion time were compared each other.

[2] = system: leucocytes (neutrophils, monocytes, lymphocytes); assay: Uptake and excretion of Alexa Fluor 680-BMPP by leucocytes of healthy individuals and primary TGCV patients (FACS); type: cell-based, human
Description: 5.5 ml of whole blood collected from healthy individuals and patients using the blood collection tube containing heparin was added with the leucocyte separating agent (HetaSep, Veritas Corporation) in an amount of one fifth of the whole blood, leucocytes were collected according to a manufacturer's instruction, and the cells were resuspended in 2.1 ml of DMEM medium without serum (hereinafter, DMEM serum-free medium). Alexa Fluor™ 680-BMPP uptake ability and Alexa Fluor™ 680-BMPP excretion ability of the leucocytes were measured using 400 μl each as described below.
40 μl of the Alexa Fluor™ 680-BMPP or 40 μl of the Alexa Fluor™ 680 was added to 400 μl of the cell resuspension so that a final concentration of the Alexa Fluor™ 680-BMPP or the Alexa Fluor™ 680 was 0.067 μM, and a reaction for uptake the fluorescence-labeled substance was performed by standing at room temperature for 30 minutes. A sample for measurement immediately after the uptake was added with BD FACS Lysing Solution immediately after the reaction to be hemolyzed and then, subjected to FACS. On the other hand, as for a sample for measurement of excretion, the Alexa Fluor™ 680-BMPP or the Alexa Fluor™ 680 was removed from the sample by centrifugation at room temperature, cells were resuspended in 500 μl of DMEM serum-free medium, and the cells were allowed to stand at 37° C. for 2 hours to be subjected to an excretion reaction of the taken Alexa Fluor™ 680-BMPP or Alexa Fluor™ 680, then BD FACS Lysing Solution was added, and the sample was subjected to FACS in the same manner as the sample immediately after the uptake. FACS analysis was performed in the same manner as described in the experimental example 2, and for each of neutrophils, monocytes, and lymphocytes, fluorescence intensity of the sample immediately after uptake was compared with fluorescence intensity of the sample for measurement of excretion.

[3] = system: leucocytes (neutrophils) of the case 1 patient; assay: Ability of leucocytes to excrete Alexa Fluor 680-BMPP before and after tricaprin treatment; type: in vivo, human
Description: Next, the abilities for taking up and for excreting the Alexa Fluor™ 680-BMPP were compared using whole blood collected from the patients in the case 1 described in the above 6-2. before and after the tricaprin treatment.
Preparation of the leucocyte and measurement of the abilities for taking up and for excreting the Alexa Fluor™ 680-BMPP using the leucocyte cells were performed according to the experimental examples.

[4] = system: leucocytes (neutrophils, monocytes, lymphocytes); assay: Uptake of fluorescence-labeled BMPP by leucocytes in whole blood (FACS); type: cell-based, human; details: monocytes and lymphocytes, whole blood of healthy individual, 0.0074, 0.022, 0.067, 0.2 μM, room temperature 30 minutes
Description: Each 200 μl of whole blood collected from a healthy individual using a blood collection tube containing heparin was used as a sample. As a fluorescent-labeled BMPP-added group, the Alexa Fluor™ 680-BMPP prepared in the experimental example 1 was added to the samples so that a final concentration of the Alexa Fluor™ 680-BMPP was 0.0074 μM, 0.022 μM, 0.067 μM, and 0.2 μM, respectively. As a negative control group, Alexa Fluor™ 680 NHS Ester hydrolysate (hereinafter, simply referred to as Alexa Fluor™ 680) was added to the samples so that a final concentration of the Alexa Fluor™ 680 was 0.0074 μM, 0.022 μM, 0.067 μM, and 0.2 μM, respectively. […]
After the uptake is completed, 2 ml of BD FACS Lysing Solution (BD Biosciences) was added to the sample, and the mixture was allowed to stand at room temperature for 30 minutes to hemolyze erythrocytes, and then leucocytes were collected as precipitates by centrifugation at room temperature at 1500 rpm for 30 minutes, and resuspended in PBS to prepare a sample for FACS analysis. The FACS analysis was performed by preparing gates containing lymphocytes, monocytes, or neutrophils in advance by dot plots of forward-scattered light and side-scattered light using leucocytes prepared in the same manner without adding the Alexa Fluor™ 680-BMPP, and measuring the number of cells until […] cells were counted in the gate. […]

[5] = system: triglyceride deposit-type atherosclerosis of the coronary artery; assay: MCT dietary therapy: coronary artery CT evaluation of fat accumulated in coronary arteries; type: in vivo, human
Description: A person with genetic ATGL (Adipose triglyceride lipase) deficiency. Since it was confirmed that the patient was suffering from triglyceride deposit-type atherosclerosis by coronary CT inspection, MCT dietary therapy was started. The patient ingested 6 to 9 g of tricaprin as the MCT per 1 day, 3 times a day after meals for 50 days.
Before the start of the MCT dietary therapy and after 50 days from the start of the MCT dietary therapy, normal coronary artery CT was performed to acquire a three-dimensional DICOM image of the left anterior descending branch. The samples were resampled in 0.1 mm^3 of voxels and layer-by-layer coloring was performed based on intra-voxel CT values. Smoothing was performed between voxels. The layer-by-layer coloring was performed as follows.
Light gray: between −25 HU to 0 HU (fat content is high) Middle gray 0 HU to 40 HU (fat content is medium) Dark gray: 40 HU to 125 HU (no fat) (iii) Results
A person who has suffered from refractory angina pectoris for years. Even when a combination treatment of a plurality of antianginal drugs and statins or the like was performed, the angina pectoris was rather exacerbated. Since it was confirmed that the patient was suffering from triglyceride deposit-type atherosclerosis by coronary CT inspection, MCT dietary therapy was started. The patient ingested 1.5 g of tricaprin as the MCT per 1 day, 3 times a day after meals for 4 years.
Before the start of the MCT dietary therapy and after 4 years from the start of the MCT dietary therapy, normal coronary artery CT was performed, and the layer-by-layer coloring of the inside of the left anterior descending branch was performed in the same manner as described in the case 1.

Row | Compound | excretion time at which the taken Alexa Fluor 680-BMPP was sufficiently excreted (almost background) [1] [min] | ability to excrete the Alexa Fluor 680-BMPP, primary TGCV patient versus healthy individuals ([2]; leucocytes, overall conclusion) | ability to excrete the Alexa Fluor 680-BMPP (leftward shift of fluorescence intensity) ([2]; lymphocytes of healthy individuals, 0.067 μM, excretion 37° C. 2 hours) | ability to excrete the Alexa Fluor 680-BMPP compared to healthy individuals ([2]; lymphocytes of primary TGCV patients, 0.067 μM, excretion 37° C. 2 hours) | ability to excrete the Alexa Fluor 680-BMPP (leftward shift of histogram) ([2]; neutrophils of healthy individuals, 0.067 μM, excretion 37° C. 2 hours) | ability to excrete the Alexa Fluor 680-BMPP compared to healthy individuals ([2]; neutrophils of primary TGCV patients, 0.067 μM, excretion 37° C. 2 hours) | ability for excreting the Alexa Fluor 680-BMPP compared to healthy individuals ([3]; leucocytes (neutrophils) of case 1 patient before the start of the treatment) | uptake amount of the Alexa Fluor 680-BMPP (shift of fluorescence intensity histogram) [4] | ability for excreting the Alexa Fluor 680-BMPP in the patient after the treatment ([3]; case 1 patient leucocytes after tricaprin (MCT dietary therapy) treatment) | effect on triglyceride deposit-type atherosclerosis of the coronary artery (coronary CT) ([5]; case 1: genetic ATGL deficiency, 6 to 9 g per day, 50 days) | effect on triglyceride deposit-type atherosclerosis of the coronary artery (coronary CT) ([5]; case 2: refractory angina pectoris, 1.5 g per day, 4 years) | diameter of the blood flow site (coronary CT) ([5]; case 2, 1.5 g per day, 4 years)
1 | 15-phenyl-3-methylpentadenoic acid labeled with Alexa Fluor™ 680 [Alexa Fluor™ 680-BMPP] | 10 | lower | demonstrated | reduced | sufficiently demonstrated | clearly reduced | clearly reduced | concentration dependent increase | – | – | – | –
2 | CCCCCCCCCC(=O)OCC(COC(=O)CCCCCCCCC)OC(=O)CCCCCCCCC [tricaprin] | – | – | – | – | – | – | – | – | restored to the same level as in healthy individuals | regression | regression | significantly increased
